Experimental findings from patent publication US20260092061A1, “COMPOUNDS FOR TARGETED PROTEIN DEGRADATION” (Amphista Therapeutics Limited, priority 2022, published 2026) are described below.

The target of assay [1] is T1, BRD9 (Homo sapiens, UniProt Q9H8M2).
T1 sequence (Q9H8M2 1-597): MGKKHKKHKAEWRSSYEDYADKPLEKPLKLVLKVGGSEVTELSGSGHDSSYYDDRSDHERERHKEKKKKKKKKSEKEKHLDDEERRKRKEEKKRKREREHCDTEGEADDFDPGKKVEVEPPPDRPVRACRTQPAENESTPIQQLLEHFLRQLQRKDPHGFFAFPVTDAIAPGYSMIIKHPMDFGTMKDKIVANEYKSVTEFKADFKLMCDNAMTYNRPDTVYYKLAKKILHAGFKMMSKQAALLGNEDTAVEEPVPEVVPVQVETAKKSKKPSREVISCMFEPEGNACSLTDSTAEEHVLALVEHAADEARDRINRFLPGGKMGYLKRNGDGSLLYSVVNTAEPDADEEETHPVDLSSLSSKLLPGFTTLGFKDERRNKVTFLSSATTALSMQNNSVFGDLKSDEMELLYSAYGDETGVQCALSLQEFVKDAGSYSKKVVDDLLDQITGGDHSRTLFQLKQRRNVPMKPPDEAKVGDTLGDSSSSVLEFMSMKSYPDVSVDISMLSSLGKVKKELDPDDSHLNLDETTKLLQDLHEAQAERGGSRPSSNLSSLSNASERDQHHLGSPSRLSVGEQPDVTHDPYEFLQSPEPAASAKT
Briefly: BRD9 degradation, HiBiT-BRD9 KI HEK293 (LgBiT) cells, NanoGlo Lytic Endpoint assay (Assay Protocol 1). The class given is cell-based. Conditions: BRD9 degradation; for Dmax / Dmax at 1 µM: HEK293; for Dmax at 1 µM: 1 μM compound at 6 h of treatment, read-out: Assay 1 Dmax. The procedure: HiBiT-BRD9 KI HEK293 (LgBiT) Cells (Promega CS3023412) were seeded at 8000 cells per well (38 μL) in sterile white bottom 384 well plates (Invitrogen 164610 or Greiner 781080) and incubated overnight at 37° C. with 5% CO2. The next day, compounds were prepared at 1000× final concentration in DMSO and diluted 1:100 in media (DMEM PAN Biotech P04-03550+10% FBS ATCC 302025). 4 μL compound was added to each well of the cell plate and incubated for 6 h at 37° C. with 5% CO2 BRD9 expression was quantified using the NanoGlo Lytic Endpoint assay (Promega N3050). The lytic buffer was equilibrated to room temperature for 10-15 min before lytic reagent was prepared by adding substrate (1:50) and LgBit protein (1:100) in lytic buffer. 40 μL lytic reagent mix was added to each well of the cel plate and plates were centrifuged briefly at ˜50g. Plates were incubated with shaking (350 RPM) for 12-24 min before reading using the LUM plus module of a BMG Pherastar FSX. Data was analysed using Dotmatics software and % BRD9 remaining was calculated by normalisation to average data from high and low control wells (DMSO treated cels and no cells respectively).
In general terms: With HiBiT, luminescence reflects the tagged protein that the partner subunit can reach.

Assay [2] concerns the target T1, BRD9. In words: Degradation of BRD9 (IF), immunofluorescence in MV4-11 cells, 24 hours (Assay Protocol 2). Type of assay: cell-based. The arrangement: A suspension of MV4-11 cells (ATCC CRL-9591) was prepared; host or cells: MV4-11. Conditions: BRD9 degradation. Put shortly: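 % BRD9 remaining, scaled between DMSO (high) and 100 nM CFT-8634 (low) control wells, derives from mean Alexa 647 contrast in central nuclei by high-content imaging. MV4-11 cells had 24 h compound exposure at 37° C. before PFA fixation, Triton permeabilisation and anti-BRD9 E4Q3F immunostaining.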

[3] abbreviates: Assay protocol 1, read-out: Dmax.
The mark [4] stands for this setting: MV4-11, Assay protocol 2, read-out: Dmax.
Setting [5] is: Assay protocol 1, read-out: DC50.
Where [6] appears, read: Assay protocol 2, read-out: DC50.
Setting [7] is: Table 2, Assay Protocol 1, 6 h of treatment, read-out: Assay 1 DC50.

Turning to `CCCC(c1ccc(C(=O)N(C)CCC(=O)N2CCN(Cc3c(OC)cc(-c4cn(C)c(=O)c(C)c4C)cc3OC)CC2)cc1)N(C)C(=O)/C(C#N)=C/c1nccs1` (stereo not shown) [Compound B180], the greatest degradation seen (Dmax) at BRD9 [1] (setting [3]) and on BRD9 [2] (setting [4]) was 40 to 70% each time.

Turning to `COc1cc(-c2cn(C)c(=O)c(C)c2C)cc(OC)c1CN1CCN(Cc2cccc3c2CCN(C(=O)/C(C#N)=C\C(C)(C)CF)C3C)C2(CC2)C1` (mixture of isomers) [Compound B125, (E/Z)-2-(5-((7-(2,6-dimethoxy-4-(1,4,5-trimethyl-6-oxo-1,6-dihydropyridin-3-yl)benzyl)-4,7-diazaspiro[2.5]octan-4-yl)methyl)-1-methyl-1,2,3,4-tetrahydroisoquinoline-2-carbonyl)-5-fluoro-4,4-dimethylpent-2-enenitrile], the 50% degradation concentration (DC50) at BRD9 [1] (setting [5]) and on BRD9 [2] (setting [6]) was under 1.25 nM in each case. For the same compound, the Dmax on BRD9 [1] (setting [3]) and on BRD9 [2] (setting [4]) was over 75% in each case.

Take `COc1cc(-c2cn(C)c(=O)c(C)c2C)cc(OC)c1C(=O)N1CC2CC1CN2C(=O)/C(C#N)=C/C(C)(C)C` (mixture of isomers) [BRD9t, (E/Z)-2-(5-(2,6-dimethoxy-4-(1,4,5-trimethyl-6-oxo-1,6-dihydropyridin-3-yl)benzoyl)-2,6-diazabicyclo[2.2.1]heptane-2-carbonyl)-4,4-dimethylpent-2-enenitrile]: the Dmax (commonly the greatest extent of degradation seen) is over 70% at BRD9 [1] (Table 4, determined according to Assay Protocol 1, read-out: Dmax^1) and over 70% at BRD9 [2] (MV4-11, Table 4, determined according to Assay Protocol 2, read-out: Dmax^2). At BRD9 [2] (Table 4, determined according to Assay Protocol 2, read-out: DC50^2), the DC50 (commonly the concentration at which degradation of the target reaches its halfway point) is over 200 nM.

`COc1cc(-c2cn(C)c(=O)c(C)c2C)cc(OC)c1CN1CC2CC(C1)N2Cc1cccc(C2CCCN2C(=O)/C(C#N)=C/c2cccc(Br)n2)c1` (mixture of isomers) [Compound B12, (E/Z)-3-(6-bromopyridin-2-yl)-2-(2-(3-((3-(2,6-dimethoxy-4-(1,4,5-trimethyl-6-oxo-1,6-dihydropyridin-3-yl)benzyl)-3,6-diazabicyclo[3.1.1]heptan-6-yl)methyl)phenyl)pyrrolidine-1-carbonyl)acrylonitrile]: the DC50 fell in the range of 10 to 25 nM on BRD9 [1] (setting [5]) and 1.25 to 10 nM on BRD9 [2] (setting [6]). Besides, the Dmax on BRD9 [1] (setting [3]) and at BRD9 [2] (setting [4]) was over 75% in each case.

As for `COc1ccc(/C=C(\C#N)C(=O)N2CCc3c(CN4CCN(Cc5c(OC)cc(-c6cn(C)c(=O)c(C)c6C)cc5OC)CC4)cccc3C2C)nc1` (mixture of isomers) [Compound B53, (E/Z)-2-(5-((4-(2,6-dimethoxy-4-(1,4,5-trimethyl-6-oxo-1,6-dihydropyridin-3-yl)benzyl)piperazin-1-yl)methyl)-1-methyl-1,2,3,4-tetrahydroisoquinoline-2-carbonyl)-3-(5-methoxypyridin-2-yl)acrylonitrile], at BRD9 [1] (setting [5]), the DC50 was in the range of 1.25 to 10 nM. Also, the maximal degradation (Dmax) on BRD9 [1] (setting [3]) and on BRD9 [2] (setting [4]) was 40 to 70% throughout.

As for `COc1cc(-c2cn(C)c(=O)c(C)c2C)cc(OC)c1CN1CC(Oc2ccc3c(c2)CCN(C(=O)/C(C#N)=C/c2cccc(Br)n2)C3C)C1` (mixture of isomers) [Compound B57, (E/Z)-3-(6-bromopyridin-2-yl)-2-(6-((1-(2,6-dimethoxy-4-(1,4,5-trimethyl-6-oxo-1,6-dihydropyridin-3-yl)benzyl)azetidin-3-yl)oxy)-1-methyl-1,2,3,4-tetrahydroisoquinoline-2-carbonyl)acrylonitrile], the DC50 at BRD9 [1] (setting [5]) and on BRD9 [2] (setting [6]) was under 1.25 nM throughout. The greatest degradation seen (Dmax) on BRD9 [1] (setting [3]) and at BRD9 [2] (setting [4]) was 40 to 70% in each case.

Regarding `COc1cc(-c2cn(C)c(=O)c3cnccc23)cc(OC)c1CN1CCN(Cc2cccc3c2CCN(C(=O)/C(C#N)=C\c2ccns2)C3C)CC1` (mixture of isomers) [Compound A23, (E/Z)-2-(5-((4-(2,6-dimethoxy-4-(2-methyl-1-oxo-1,2-dihydro-2,7-naphthyridin-4-yl)benzyl)piperazin-1-yl)methyl)-1-methyl-1,2,3,4-tetrahydroisoquinoline-2-carbonyl)-3-(isothiazol-5-yl)acrylonitrile], on BRD9 [1] (Table 2, Assay Protocol 1), the greatest degradation seen (Dmax) at 1 µM fell in the range of 40 to 70%. The DC50 on BRD9 [1] (setting [7]) fell in the range of 1.25 to 10 nM.

For `COc1cc(-c2cn(C)c(=O)c(C)c2C)cc(OC)c1CN1CCN(C(=O)CCc2ccc3c(c2)CCN(C(=O)/C(C#N)=C/c2nccs2)C3C)CC1` (mixture of isomers) [Compound A56, (E/Z)-2-(6-(3-(4-(2,6-dimethoxy-4-(1,4,5-trimethyl-6-oxo-1,6-dihydropyridin-3-yl)benzyl)piperazin-1-yl)-3-oxopropyl)-1-methyl-1,2,3,4-tetrahydroisoquinoline-2-carbonyl)-3-(thiazol-2-yl)acrylonitrile], the Dmax at 1 µM at BRD9 [1] (Table 2, Assay Protocol 1) lay in the range of 40 to 70%. In addition, the DC50 on BRD9 [1] (setting [7]) lay in the range of 10 to 25 nM.

On to `COc1cc(-c2cn(C)c(=O)c(C)c2C)cc(OC)c1CN1CC2CCC(C1)N2Cc1cccc2c1CCN(C(=O)/C(C#N)=C/c1cccc(Br)n1)C2C` (mixture of isomers) [Compound B8, (E/Z)-3-(6-bromopyridin-2-yl)-2-(5-((3-(2,6-dimethoxy-4-(1,4,5-trimethyl-6-oxo-1,6-dihydropyridin-3-yl)benzyl)-3,8-diazabicyclo[3.2.1]octan-8-yl)methyl)-1-methyl-1,2,3,4-tetrahydroisoquinoline-2-carbonyl)acrylonitrile], for which, on BRD9 [1] (setting [5]), the DC50 was in the range of 1.25 to 10 nM. The maximal degradation (Dmax) on BRD9 [1] (setting [3]) lay in the range of 40 to 70%.

With `COc1cc(-c2cn(C)c(=O)c(C)c2C)cc(OC)c1CN1CCN(C(=O)CCc2cccc3c2CCN(C(=O)/C(C#N)=C/c2nccs2)C3C)CC1` (mixture of isomers) [Compound A57, (E/Z)-2-(5-(3-(4-(2,6-dimethoxy-4-(1,4,5-trimethyl-6-oxo-1,6-dihydropyridin-4-yl)benzyl)piperazin-1-yl)-3-oxopropyl)-1-methyl-1,2,3,4-tetrahydroisoquinoline-2-carbonyl)-3-(thiazol-2-yl)acrylonitrile], the maximal degradation (Dmax) at 1 µM on BRD9 [1] (Table 2, Assay Protocol 1) is over 75%. Further, on BRD9 [1] (setting [7]), the DC50 lay in the range of 1.25 to 10 nM.

Consider `COc1cc(-c2cn(C)c(=O)c3cnccc23)cc(OC)c1CN1CCN(Cc2cccc3c2CCN(C(=O)/C(C#N)=C\c2ccc(F)cn2)C3C)CC1` (mixture of isomers) [Compound A12, (E/Z)-2-(5-((4-(2,6-dimethoxy-4-(2-methyl-1-oxo-1,2-dihydro-2,7-naphthyridin-4-yl)benzyl)piperazin-1-yl)methyl)-1-methyl-1,2,3,4-tetrahydroisoquinoline-2-carbonyl)-3-(5-fluoropyridin-2-yl)acrylonitrile], for which the Dmax at 1 µM on BRD9 [1] (Table 2, Assay Protocol 1) was in the range of 40 to 70%. For the same compound, the DC50 on BRD9 [1] (setting [7]) is 10 to 25 nM.

As for `COc1cc(-c2cn(C)c(=O)c3cnccc23)cc(OC)c1CN1CCN(C(=O)c2ccc(C3CCCN3C(=O)/C(C#N)=C/c3nccs3)cc2)CC1` (mixture of isomers) [Compound A34, (E/Z)-2-(2-(4-(4-(2,6-dimethoxy-4-(2-methyl-1-oxo-1,2-dihydro-2,7-naphthyridin-4-yl)benzyl)piperazine-1-carbonyl)phenyl)pyrrolidine-1-carbonyl)-3-(thiazol-2-yl)acrylonitrile], at BRD9 [1] (Table 2, Assay Protocol 1), the Dmax at 1 µM lay in the range of 40 to 70%. On BRD9 [1] (setting [7]), the DC50 fell in the range of 1.25 to 10 nM.

In the case of `COc1cc(-c2cn(C)c(=O)c(C)c2C)cc(OC)c1CN1CCN(Cc2cccc(C3CCCN3C(=O)/C(C#N)=C/c3cccc(Br)n3)c2)CC1` (mixture of isomers) [Compound A63, (E/Z)-3-(6-bromopyridin-2-yl)-2-(2-(3-((4-(2,6-dimethoxy-4-(1,4,5-trimethyl-6-oxo-1,6-dihydropyridin-3-yl)benzyl)piperazin-1-yl)methyl)phenyl)pyrrolidine-1-carbonyl) acrylonitrile], the Dmax at 1 µM at BRD9 [1] (Table 2, Assay Protocol 1) is over 75%. The DC50 on BRD9 [1] (setting [7]) was in the range of 1.25 to 10 nM.
